Assay results from patent US7098219B2, “Inhibitors of cellular efflux pumps of microbes” (Wockhart Limited, priority 2000, dated 2006).

System: Mef Efflux Pump of Streptococcus pneumoniae 3514 and Streptococcus pyogenes 26-00
Assay: Two plate diffusion assay for macrolide (Mef) efflux pump inhibitors, azithromycin plate versus control plate
Type: cell-based
Details: zone of inhibition in antibiotic plate (method: azithromycin 0.5 mcg/ml; footnote: levofloxacin) minus water control plate; strain not given

Row | Compound | Difference in Zone diameter Z1 (mm)
1 | CCNC1CCN(c2c(F)cc3c(=O)c(C(=O)O)cn(CC)c3c2F)CC1 [Example 12 (Mef), 1-Ethyl-6,8-difluoro-1,4-dihydro-7-(4′-ethylaminouiperidin-1′-yl)-4-oxo-quinoline-3-carboxylic acid] | 18
2 | CCNC1CCN(c2cc3c(cc2F)c(=O)c(C(=O)O)cn3-c2ccc(F)cc2F)CC1 [Example 17 (Mef), 1-(2′,4′-Difluorophenyl)-6-fluoro-1,4-dihydro-7-(4′-ethylaminopiperidin-1′-yl)-4-oxo-quinoline-3-carboxylic acid] | 9
3 | CC1CN(c2cc3c(cc2F)c(=O)c(C(=O)O)cn3C2CC2)CCC1N(C)C (stereo not drawn) [Example 32 (Mef), 1-Cyclopropyl-6-fluoro-1,4-dihydro-7-(4′-dimethylamino-3′-methylpiperidin-1-yl)-4-oxo-quinoline-3-carboxylic acid] | 8
4 | 1-Cyclopropyl-6-fluoro-8-methoxy-1,4-dihydro-7-{-4′-(t-butoxycarbonyl (L)-Ala-Ala)amino 3′,3′-dimethylpiperidin-1-yl}-4-oxo-quinoline-3-carboxylic acid [Example 34 (Mef)] | 8
5 | CC1COc2c(N3CCC(O)C(CN)C3)c(F)cc3c(=O)c(C(=O)O)cn1c23 (stereo not drawn) [Example 27 (Mef), 7H-Pyrido[1,2,3-de]-1,4-benzoxazine-9-fluoro-2,3-dihydro-3-methyl-10-(3′-aminomethyl-4′-hydroxypiperidin-1′-yl)-7-oxo-6-carboxylic acid] | 16
6 | COc1c(N2CCC(NC(=O)[C@H](C)N)C(C)(C)C2)c(F)cc2c(=O)c(C(=O)O)cn(C3CC3)c12.Cl (stereo partly drawn) [Example 8 (Mef), 1-Cyclopropyl-6-fluoro-8-methoxy-1,4-dihydro-7-(4′-(L)-alaninylamino-3′,3′-dimethylpiperidin-1-yl)-4-oxo-quinoline-3-carboxylic acid hydrochloride] | 10
7 | CCNC1CCN(c2c(F)cc3c(=O)c(C(=O)O)cn4c3c2CC[C@@H]4C)CC1(C)C (stereo partly drawn) [Example 30 (Mef), (S)-(−)-9-Fluoro-6,7-dihydro-8-(3′,3′-dimethyl-4′-ethylaminopiperidin-1-yl)-5-methyl-1-oxo-1H,5H-benzo[i,j]quinolizine-2-carboxylic acid] | 8
8 | CCNC1C(C)CN(c2c(F)c(N)c3c(=O)c(C(=O)O)cn(C4CC4)c3c2OC)CC1C (stereo not drawn) [Example 35 (Mef), 5-Amino-1-cyclopropyl-6-fluoro-8-methoxy-1,4-dihydro-7-{4′-ethylamino-3′,5′-dimethylpiperidin-1-yl}-4-oxo-quinoline-3-carboxylic acid] | 13
9 | Cc1c(F)c(F)c(F)c2c1c(=O)c(C(=O)O)cn2C1CC1 [Example 29 (Mef), 1-cyclopropyl-6,7,8-trifluoro-5-methyl-1,4-dihydro-4-oxo-quinoline-3-carboxylic acid] | 10
10 | CC1CN(c2nc3c(cc2F)c(=O)c(C(=O)O)cn3-c2ccc(F)cc2F)CC(C)C1N (stereo not drawn) [Example 37 (Mef), 1-(2,4-difluorophenyl)-6-fluoro-1,4-dihydro-7-(4-amino-3,5-dimethylpiperidin-1-yl)-4-oxo-1,8-naphthyridine-3-carboxylic acid] | 7
11 | COc1c(N2CCC(N)C(C)(C)C2)c(F)cc2c(=O)c(C(=O)OC(C)C)cn(C3CC3)c12 (stereo not drawn) [Example 3 (Mef), i-Propyl 1-cyclopropyl-6-fluoro-8-methoxy-1,4-dihydro-7-(4′-amino-3′,3′-dimethyl-piperidin-1-yl)-4-oxo-quinoline-3-carboxylate] | 11
12 | CC1CCc2c(N3CCC(O)C(C)(C)C3)ccc3c(=O)c(C(=O)O)cn1c23 (racemic) [Example 43 (Mef), (RS)-(±)-6,7-dihydro-8-(4′-hydroxy-3′,3′-dimethylpiperidin-1-yl)-5-methyl-1-oxo-1H,5H-benzo[i,j]quinolizine-2-carboxylic acid] | 10
13 | COc1c(N2CCC(NC(=O)OC(C)(C)C)C(C)(C)C2)c(F)cc2c(=O)c(C(=O)OCc3ccccc3)cn(C3CC3)c12 (stereo not drawn) [Example 6 (Mef)] | 13
14 | CCCCOC(=O)c1cn(C2CC2)c2c(OC)c(N3CCC(N)C(C)(C)C3)c(F)cc2c1=O (stereo not drawn) [Example 4 (Mef), n-Butyl 1-cyclopropyl-6-fluoro-8-methoxy-1,4-dihydro-7-(4′-amino-3′,3′-dimethyl-piperidin-1-yl)-4-oxo-quinoline-3-carboxylate] | 11
15 | COc1c(N2CCC(NC(=O)[C@@H](N)C(C)C)C(C)(C)C2)c(F)cc2c(=O)c(C(=O)O)cn(C3CC3)c12.Cl (stereo partly drawn) [Example 10 (Mef), 1-Cyclopropyl-6-fluoro-8-methoxy-1,4-dihydro-7-(3′,3′-dimethyl-4′-L-valinylaminopiperidin-1-yl}-4-oxo-quinoline-3-carboxylic acid hydrochloride] | 8
16 | COc1c(N2CCC(NC(=O)[C@@H](NC(=O)OC(C)(C)C)C(C)C)C(C)(C)C2)c(F)cc2c(=O)c(C(=O)O)cn(C3CC3)c12 (stereo partly drawn) [Example 9 (Mef), 1-Cyclopropyl-6-fluoro-8-methoxy-1,4-dihydro-7-(3′,3′-dimethyl-4′-N-(t-butoxycarbonyl-L-valyl)-aminopiperidin-1-yl}-4-oxo-quinoline-3-carboxylic acid] | 5
17 | C[C@H]1CCc2c(N3CCC(O)C(F)C3)c(F)cc3c(=O)c(C(=O)O)cn1c23 (stereo partly drawn) [Example 39 (Mef), (S)-(−)-9-Fluoro-6,7-dihydro-8-(4′-hydrox 3′-fluoropiperidin-1-yl)-5-methyl-1-oxo-1H,5H-benzo[i,j]quinolizine-2-carboxylic acid] | 8
18 | CC1(C)CN(c2nc3c(cc2F)c(=O)c(C(=O)O)cn3-c2ccc(F)cc2F)CCC1O (stereo not drawn) [Example 24 (Mef), 1-(2,4-Difluorophenyl)-6-fluoro-1,4-dihydro-7-(3′,3′-dimethyl-4′-hydroxypiperdin-1-yl)-4-oxo-naphthyridine-3-carboxylic acid] | 10
19 | Nc1c(F)c(NC2CN3CCC2CC3)c(F)c2c1c(=O)c(C(=O)O)cn2C1CC1 (stereo not drawn) [Example 14 (Mef), 5-Amino-1-cyclopropyl-6,8-difluoro-1,4-dihydro-7-(3′-quinuclidinyl-3′-yl-amino)-4-oxo-quinoline-3-carboxylic acid] | 8
20 | CC1CCc2c(N3CC[C@@H](O)[C@H](C)C3)ccc3c(=O)c(C(=O)O)cn1c23 (mixture of isomers) [Example 41 (Mef), (RS)-(±)-6,7-dihydro-8-(trans-4′-hydroxy-3′-methylpiperidin-1-yl)-5-methyl-1-oxo-1H,5H-benzo[i,j]quinolizine-2-carboxylic acid] | 10
21 | NCC1CN(c2cc3c(cc2F)c(=O)c(C(=O)O)cn3C2CC2)CCC1O (stereo not drawn) [Example 31 (Mef), 1-Cyclopropyl-6-fluoro-1,4-dihydro-7-(3′-aminomethyl-4′-hydroxypiperidin 1-yl)-4-oxo-quinoline-3-carboxylic acid] | 6
